ChEMBL document CHEMBL1201862, “PubChem BioAssay data set” (2004)
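Five concentrations, 48 hours, 96-well plates. GI50 marks 50% less growth.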 Activity calls are given as the source filed them. Rule as the data show it: active = GI50 up to about 1.1 µM and inactive = higher.

What was measured:
Assay in all cases: DTP human tumour cell line panel, 48 h
[1] = system: SK-MEL-2
[2] = system: UACC-257
[3] = system: OVCAR-5
[4] = system: IGROV-1
[5] = system: SNB-75
[6] = system: HCT-116
[7] = system: SF-295
[8] = system: SW-620
[9] = system: HOP-18
[10] = system: M19-MEL
[11] = system: U-251
[12] = system: SF-268
[13] = system: UACC-62
[14] = system: CAKI-1
[15] = system: RXF 393
[16] = system: HCT-15
[17] = system: HCC 2998
[18] = system: DLD-1
[19] = system: SK-OV-3
[20] = system: KM12
[21] = system: EKVX
[22] = system: NCI-H226
[23] = system: HT-29
[24] = system: DMS-273
[25] = system: LOX IMVI
[26] = system: RPMI-8226
[27] = system: OVCAR-8
[28] = system: HL-60
[29] = system: OVCAR-4
[30] = system: NCI-H23
[31] = system: A549
[32] = system: HOP-62
[33] = system: SK-MEL-28
[34] = system: K562
[35] = system: DMS-114
[36] = system: KM-20L2
[37] = system: COLO 205
[38] = system: CCRF-CEM
[39] = system: SK-MEL-5
[40] = system: HOP-92
[41] = system: MOLT-4
[42] = system: XF498
[43] = system: UO-31
[44] = system: NCI/ADR-RES
[45] = system: OVCAR-3
[46] = system: SNB-19
[47] = system: NCI-H460
[48] = system: SNB-78
[49] = system: SN12C
[50] = system: MCF7
[51] = system: A498
[52] = system: SF-539
[53] = system: M14
[54] = system: NCI-H522
[55] = system: Malme-3M
[56] = system: ACHN
[57] = system: TK-10
[58] = system: 786-0
[59] = system: LXFL 529

`CCOC(=O)c1cc(Cl)ccc1OC(N)=O` was tested, and the GI50 [1] was > 100 µM (inactive), the GI50 [2] was > 100 µM (inactive) and the GI50 [3] was > 100 µM (inactive). The GI50 [4] was > 100 µM (inactive), the GI50 [5] was > 100 µM (inactive) and the GI50 [6] was > 100 µM (inactive). For the same molecule, the GI50 [7] was > 100 µM (inactive), the GI50 [8] was > 100 µM (inactive) and the GI50 [9] was > 96.4 µM (inactive). For the same molecule, the GI50 [10] was > 100 µM (inactive), the GI50 [11] was > 100 µM (inactive) and the GI50 [12] was > 100 µM (inactive). The GI50 [13] was > 100 µM (inactive), the GI50 [14] was > 100 µM (inactive) and the GI50 [15] was > 100 µM (inactive). For the same molecule, the GI50 [16] was over 100 µM, the GI50 [17] was > 100 µM (inactive) and the GI50 [18] was > 100 µM (inactive). The GI50 [19] was > 100 µM (inactive), the GI50 [20] was > 100 µM (inactive) and the GI50 [21] was > 100 µM (inactive). For the same molecule, the GI50 [22] was > 100 µM (inactive), the GI50 [23] was > 100 µM (inactive) and the GI50 [24] was > 100 µM (inactive). For the same molecule, the GI50 [25] was > 100 µM (inactive), the GI50 [26] was > 100 µM (inactive) and the GI50 [27] was > 100 µM (inactive). The GI50 [28] was > 100 µM (inactive), the GI50 [29] was > 100 µM (inactive) and the GI50 [30] was > 100 µM (inactive). For the same molecule, the GI50 [31] was > 100 µM (inactive), the GI50 [32] was > 100 µM (inactive) and the GI50 [33] was > 100 µM (inactive). The GI50 [34] was > 100 µM (inactive), the GI50 [35] was > 100 µM (inactive) and the GI50 [36] was > 100 µM (inactive). For the same molecule, the GI50 [37] was > 100 µM (inactive), the GI50 [38] was > 100 µM (inactive) and the GI50 [39] was > 100 µM (inactive). For the same molecule, the GI50 [40] was > 100 µM (inactive), the GI50 [41] was > 100 µM (inactive) and the GI50 [42] was > 100 µM (inactive). For the same molecule, the GI50 [43] was > 100 µM (inactive), the GI50 [44] was > 100 µM (inactive) and the GI50 [45] was > 100 µM (inactive). The GI50 [46] was > 100 µM (inactive), the GI50 [47] was > 100 µM (inactive) and the GI50 [48] was > 100 µM (inactive). For the same molecule, the GI50 [49] was > 100 µM (inactive), the GI50 [50] was > 100 µM (inactive) and the GI50 [51] was > 100 µM (inactive). For the same molecule, the GI50 [52] was > 100 µM (inactive).
In the case of `c1ccc(C2N=C(c3ccccn3)C(c3ccccn3)=NC2c2ccccc2)cc1` (stereo not drawn), the GI50 [1] is reported as > 100 µM (inactive), the GI50 [2] is reported as > 100 µM (inactive) and the GI50 [53] is reported as > 100 µM (inactive). For the same molecule, the GI50 [54] was > 100 µM (inactive), the GI50 [3] was > 100 µM (inactive) and the GI50 [4] was > 100 µM (inactive). The GI50 [6] was > 100 µM (inactive), the GI50 [7] was > 100 µM (inactive) and the GI50 [55] was > 100 µM (inactive). The GI50 [8] was > 100 µM (inactive), the GI50 [9] was 84.7 µM (inactive) and the GI50 [10] was > 100 µM (inactive). The GI50 [11] was > 100 µM (inactive), the GI50 [12] was > 100 µM (inactive) and the GI50 [13] was > 100 µM (inactive). For the same molecule, the GI50 [14] was > 100 µM (inactive), the GI50 [15] was > 100 µM (inactive) and the GI50 [16] was over 100 µM. For the same molecule, the GI50 [17] was > 100 µM (inactive), the GI50 [56] was > 100 µM (inactive) and the GI50 [18] was > 100 µM (inactive). For the same molecule, the GI50 [19] was > 100 µM (inactive), the GI50 [20] was > 100 µM (inactive) and the GI50 [57] was > 100 µM (inactive). The GI50 [21] was > 100 µM (inactive), the GI50 [22] was > 100 µM (inactive) and the GI50 [23] was > 100 µM (inactive). For the same molecule, the GI50 [24] was > 100 µM (inactive), the GI50 [25] was > 100 µM (inactive) and the GI50 [26] was > 100 µM (inactive). The GI50 [27] was > 100 µM (inactive), the GI50 [28] was > 100 µM (inactive) and the GI50 [29] was > 100 µM (inactive). For the same molecule, the GI50 [30] was > 100 µM (inactive), the GI50 [31] was > 100 µM (inactive) and the GI50 [32] was 20 µM (inactive). The GI50 [33] was > 100 µM (inactive), the GI50 [34] was > 100 µM (inactive) and the GI50 [35] was > 100 µM (inactive). The GI50 [58] was > 100 µM (inactive), the GI50 [36] was > 100 µM (inactive) and the GI50 [37] was > 100 µM (inactive). The GI50 [38] was > 100 µM (inactive), the GI50 [39] was > 100 µM (inactive) and the GI50 [40] was > 100 µM (inactive). The GI50 [41] was > 100 µM (inactive), the GI50 [42] was > 100 µM (inactive) and the GI50 [43] was > 100 µM (inactive). The GI50 [45] was > 100 µM (inactive), the GI50 [46] was 19.1 µM (inactive) and the GI50 [47] was > 100 µM (inactive). For the same molecule, the GI50 [48] was > 100 µM (inactive), the GI50 [51] was > 100 µM (inactive) and the GI50 [52] was > 100 µM (inactive). For the same molecule, the GI50 [59] was > 100 µM (inactive).
For `COc1cc2c3cc1Oc1c(O)c(OC)cc4c1C(Cc1ccc(O)c(c1)Oc1ccc(cc1)CC3N(C)CC2)N(C)CC4` (stereo not drawn), the GI50 [1] was 23.6 µM (inactive), the GI50 [2] was 18.6 µM (inactive) and the GI50 [53] was 3.11 µM (inactive). For the same molecule, the GI50 [54] was 15.1 µM (inactive), the GI50 [3] was 22.7 µM (inactive) and the GI50 [4] was 26.2 µM (inactive). For the same molecule, the GI50 [5] was 15 µM (inactive), the GI50 [6] was 6.55 µM (inactive) and the GI50 [7] was 16.1 µM (inactive). For the same molecule, the GI50 [55] was 18.2 µM (inactive), the GI50 [8] was 4.44 µM (inactive) and the GI50 [9] was 27.9 µM (inactive). For the same molecule, the GI50 [10] was 21.7 µM (inactive), the GI50 [11] was 14.2 µM (inactive) and the GI50 [12] was 16.8 µM (inactive). For the same molecule, the GI50 [13] was 23.2 µM (inactive), the GI50 [14] was 17.3 µM (inactive) and the GI50 [15] was 2.44 µM (inactive). The GI50 [16] was 11.6 µM, the GI50 [17] was 5.61 µM (inactive) and the GI50 [56] was 19 µM (inactive). The GI50 [19] was 23.3 µM (inactive), the GI50 [20] was 11.1 µM (inactive) and the GI50 [57] was 13.6 µM (inactive). The GI50 [21] was 21.9 µM (inactive), the GI50 [22] was 21.4 µM (inactive) and the GI50 [23] was 7.13 µM (inactive). The GI50 [24] was 13 µM (inactive), the GI50 [25] was 3.01 µM (inactive) and the GI50 [26] was 15.1 µM (inactive). The GI50 [27] was 14.3 µM (inactive), the GI50 [28] was 21.5 µM (inactive) and the GI50 [29] was 13.8 µM (inactive). For the same molecule, the GI50 [30] was 23.7 µM (inactive), the GI50 [31] was 17.6 µM (inactive) and the GI50 [32] was 18.7 µM (inactive). The GI50 [33] was 18.3 µM (inactive), the GI50 [34] was 3.03 µM (inactive) and the GI50 [35] was 20 µM (inactive). For the same molecule, the GI50 [58] was 13.2 µM (inactive), the GI50 [36] was 5.56 µM (inactive) and the GI50 [37] was 19.5 µM (inactive). The GI50 [38] was 8.57 µM (inactive), the GI50 [39] was 18.5 µM (inactive) and the GI50 [40] was 11.9 µM (inactive). For the same molecule, the GI50 [41] was 8.34 µM (inactive), the GI50 [42] was 19.4 µM (inactive) and the GI50 [43] was 15.8 µM (inactive). The GI50 [45] was 16.9 µM (inactive), the GI50 [46] was 26 µM (inactive) and the GI50 [47] was 15.1 µM (inactive). The GI50 [48] was 24.9 µM (inactive), the GI50 [49] was 15.3 µM (inactive) and the GI50 [51] was 18.2 µM (inactive). For the same molecule, the GI50 [52] was 2.46 µM (inactive) and the GI50 [59] was 4.92 µM (inactive).
